Experimental data: patent US20230110689A1, “AGONIST COMBINATION” (Zealand Pharma A/S, priority 2020, published 2023)
Starred links: 1 amine or outer side, 2 acyl side, 3 side chain; linkers in the order of their positions; H or OH if unused. Non-standard residues stand in square brackets, D forms with d. Groups on a side chain read outwards from the residue. *: point of attachment. C18 diacid = O=C(O)CCCCCCCCCCCCCCCCC(=O)*; γGlu = O=C(O)[C@H](CCC(=O)[*:2])N[*:1]; Aib = CC(C)(N)C(=O)O

Experiments:
Format in all cases: in vivo, C57BL/6J mice
[1] = system: Short Bowel Syndome (SBS) mice; test: Short bowel syndrome (SBS) mouse model: post operative survival, body weight and dietary intake; conditions: ICR mice
Source text: (§1) Adult, male C57BL/6J mice with ˜30 g body weight of ˜4 months, received a 12-cm ileum and cecum resection (ICR) with jejunocolonic anastomosis (see FIG. 1, middle). The mice were then randomly assigned to either Cpd 18 or vehicle treatment As control for the abdominal surgery, the sham group was included which had laparotomy, bowel exposure, transection and end-to-end anastomosis but no resection (see FIG. 1, bottom). To prevent intestinal obstruction, all mice were switched to liquid diet 2 days before surgery and maintained on this diet until the end of the experiment. Throughout the experiment, animals were singly housed. All mice were studied with the intention to survive to day 14.
(§2) Briefly, mice were anesthetized by i.p. injection of ketamine (100 mg/kg bw) and xylazine (15 mg/kg bw) and orally intubated and ventilated. After midline incision, the distal small bowel and the cecum were exposed and then transected 12 cm proximal to the ileocecal junction and immediately distal to the cecum. The resected bowel was removed, and the length of the specimen was measured. An end-to-end, jejuno-colonic anastomosis was created and the abdomen was closed. In the sham group, laparotomy, bowel exposure, transection and end-to-end anastomosis but no resection was performed. Immediately after surgery, all mice were weighed and received 1 ml isotonic saline subcutaneously and carprofen 5 mg/kg body weight. All surgical procedures were performed by the same surgeon. Mice were kept in a heated terrarium (29° C.) for 4 h and then returned to individual cages with free access to liquid food and water. The liquid diet was provided in feeding tubes. Mice were allowed to recover for a day after surgery, and then injected once daily with 30 nmol/kg body weight of Cpd 18. […]
(§3) Mice were scored for wellbeing daily as described (Berlin et al. 2019). If the wellness score dropped to below 4 pts, or when weight loss exceeded 20%, the mouse was immediately killed and not analyzed further. […]
Body weight (FIG. 6) and food consumption (FIG. 7) was measured daily. […]

[2] = system: Short Bowel Syndome (SBS) mice; test: SBS mouse model: histological morphometry of intestine (mucosal height, bowel diameter); conditions: ICR mice, 30 nmol/kg once daily, vs sham
Source text: as §1
Briefly, mice were anesthetized by i.p. injection of ketamine (100 mg/kg bw) and xylazine (15 mg/kg bw) and orally intubated and ventilated. […] The resected bowel was removed, and the length of the specimen was measured. […]
as §3
Sham and SBS mice were prepared as described under Preparation of Short Bowel Syndome (SBS) mice. […] Bowel diameter was measured from the same samples from serosa to serosa in two dimensions. […]

[3] = system: Short Bowel Syndome (SBS) mice; test: SBS mouse model: jejunum weight (wet weight, dry weight, water content per 2 cm); conditions: ICR mice, 30 nmol/kg once daily
Source text: as §1
as §2, with “tubes.” for “tubes. Mice were allowed to recover for a day after surgery, and then injected once daily with 30 nmol/kg body weight of Cpd 18.”
as §3
Sham and SBS mice were prepared as described under Preparation of Short Bowel Syndome (SBS) mice. […] Water content and dry weight was then derived and calculated.

[4] = system: Short Bowel Syndome (SBS) mice; test: SBS mouse model: gross morphology / length of intestine on day 14; conditions: ICR mice, 30 nmol/kg once daily, FIG. 16
Source text: as §1
Briefly, mice were anesthetized by i.p. injection of ketamine (100 mg/kg bw) and xylazine (15 mg/kg bw) and orally intubated and ventilated. After midline incision, the distal small bowel and the cecum were exposed and then transected 12 cm proximal to the ileocecal junction and immediately distal to the cecum. The resected bowel was removed, and the length of the specimen was measured. An end-to-end, jejuno-colonic anastomosis was created and the abdomen was closed. […]
as §3

## H-H[Aib]EGSFTSELATILDK([γGlu-C18 diacid])QAARDFIAWLIQHKITD-OH [Cpd 18]
[1]; 30 nmol/kg body weight once daily from day 1 after surgery, FIG. 5
  survival rate after 14 days: 74%
[1]; 30 nmol/kg once daily, liquid diet, measured daily, vs vehicle, FIG. 7
  dietary intake: lower in the Cpd 18 treated animals from day 2 onwards as compared to vehicle
[1]; 30 nmol/kg once daily, measured daily to day 14, vs vehicle, FIG. 6
  relative body weight (relative to initial weight): differed from the vehicle group after six days onwards by starting to increase towards the initial weight
[2]; day 14, crypt base to villus tip, FIG. 8
  mucosal height: approximately double the mucosal height of sham treated animals
[2]; day 14, serosa to serosa, FIG. 9
  bowel diameter: approximately double the bowel diameter of sham treated animals
[3]; day 14, desiccated sections, FIG. 11
  dry weight per 2 cm of intestine: the same increases in mass were measured
[3]; day 14, proximal jejunum, FIG. 10
  wet weight of 2 cm sections of intestine: 73 mg
[3]; day 14, FIG. 12
  percentage of water content per 2 cm of intestine: each group had an equal water content of the intestine
[4]; day 14, representative example vs sham
  bowel length and thickness: An increase in bowel length and thickness
[4]; day 14, representative example, absent in vehicle
  solid feces in intestine: solid feces in the sham and Cpd 18 treated intestine
